Experimental data taken from article PMC2801564 (Chemistry & biology, 2009).

Biological target: T1, cathepsin L (CatL) (Ixodes ricinus, UniProt A4GTA6)
T1 sequence (A4GTA6 119-335): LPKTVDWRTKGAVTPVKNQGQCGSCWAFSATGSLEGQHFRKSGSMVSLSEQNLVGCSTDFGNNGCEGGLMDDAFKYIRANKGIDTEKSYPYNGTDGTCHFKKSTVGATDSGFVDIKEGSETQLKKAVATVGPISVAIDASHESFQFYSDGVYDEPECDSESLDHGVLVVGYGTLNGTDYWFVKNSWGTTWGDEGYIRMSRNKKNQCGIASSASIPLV
Assay: fluorimetric inhibition assay in gut extract
Type: biochemical
Conditions: DTT; pH optimum; 35 °C; covalent

CC(C)C[C@H](NC(=O)[C@H]1O[C@@H]1C(=O)O)C(=O)NCCCCNC(=N)N [E-64]
% inhibition: insensitive to E-64 (in contrast to cathepsins B, L and C)
